Measured values reported in ChEMBL document CHEMBL1201862, “PubChem BioAssay data set” (2004).
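Where inhibition never reached the appropriate level, the endpoint shown equals the highest concentration tested. Otherwise, values were interpolated linearly from a five-concentration, 48-hour dose response in 96-well plates. Here, GI50 denotes the concentration required for 50% inhibition of growth.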 Activity calls are given as the source filed them. No stated cut-off is given here; in the data, active = GI50 up to about 1.1 µM and inactive = higher.

What was measured:
Assay in all cases: NCI-60 cell line screen, 48 h
COLO 205 = tested on: COLO 205
SK-OV-3 = tested on: SK-OV-3
OVCAR-5 = tested on: OVCAR-5
NCI-H460 = tested on: NCI-H460
CAKI-1 = tested on: CAKI-1
RXF 393 = tested on: RXF 393
NCI-H23 = tested on: NCI-H23
Malme-3M = tested on: Malme-3M
HOP-92 = tested on: HOP-92
CCRF-CEM = tested on: CCRF-CEM
EKVX = tested on: EKVX
BT-549 = tested on: BT-549
ACHN = tested on: ACHN
NCI/ADR-RES = tested on: NCI/ADR-RES
HCT-116 = tested on: HCT-116
IGROV-1 = tested on: IGROV-1
TK-10 = tested on: TK-10
OVCAR-8 = tested on: OVCAR-8
UACC-62 = tested on: UACC-62

SMILES | GI50 (COLO 205) | GI50 (SK-OV-3) | GI50 (OVCAR-5) | GI50 (NCI-H460) | GI50 (CAKI-1) | GI50 (RXF 393) | GI50 (NCI-H23) | GI50 (Malme-3M) | GI50 (HOP-92) | GI50 (CCRF-CEM) | GI50 (EKVX) | GI50 (BT-549) | GI50 (ACHN) | GI50 (NCI/ADR-RES) | GI50 (HCT-116) | GI50 (IGROV-1) | GI50 (TK-10) | GI50 (OVCAR-8) | GI50 (UACC-62)
CCOC(=S)SC/C(=N\OC(C)(C)OC)c1ccccc1 | 42.8 µM (inactive) | 43.7 µM (inactive) | 40.4 µM (inactive) | 35 µM (inactive) | > 100 µM (inactive) | 25.6 µM (inactive) | 31.7 µM (inactive) | 45 µM (inactive) | 20.7 µM (inactive) | 18.1 µM (inactive) | 48.9 µM (inactive) | 44 µM (inactive) | 71.3 µM (inactive) | > 100 µM (inactive) | 24.9 µM (inactive) | 46.5 µM (inactive) | 46.6 µM (inactive) | 88.7 µM (inactive) | 31.3 µM (inactive)
Oc1nc(S)nc2c1C(c1ccc(Cl)cc1)c1c(O)nc(S)nc1O2 | > 100 µM (inactive) | – | > 100 µM (inactive) | > 100 µM (inactive) | 25.8 µM (inactive) | 0.514 µM (active) | > 100 µM (inactive) | > 100 µM (inactive) | > 100 µM (inactive) | > 100 µM (inactive) | > 100 µM (inactive) | > 100 µM (inactive) | > 100 µM (inactive) | > 100 µM (inactive) | > 100 µM (inactive) | > 100 µM (inactive) | > 100 µM (inactive) | > 100 µM (inactive) | > 100 µM (inactive)
COc1ccc(C2CC(c3c(C)nn(-c4ccccc4)c3-c3ccc(C)cc3O)=NN2c2ccccc2)cc1 (configuration not stated) | 12.7 µM (inactive) | > 100 µM (inactive) | > 35.1 µM (inactive) | 3.42 µM (inactive) | 38.9 µM (inactive) | 8.13 µM (inactive) | 3.79 µM (inactive) | 19.9 µM (inactive) | > 100 µM (inactive) | 6.05 µM (inactive) | > 33.5 µM (inactive) | 55.3 µM (inactive) | 13.9 µM (inactive) | 21.9 µM (inactive) | 12.7 µM (inactive) | 49.3 µM (inactive) | > 100 µM (inactive) | 20.4 µM (inactive) | 23 µM (inactive)
Oc1c(Cl)cc(CN(Cc2cc(Cl)c(O)c(Cl)c2)C2CCCCC2)cc1Cl | > 100 µM (inactive) | > 100 µM (inactive) | > 100 µM (inactive) | > 100 µM (inactive) | > 100 µM (inactive) | > 100 µM (inactive) | > 100 µM (inactive) | > 100 µM (inactive) | > 100 µM (inactive) | < 0.01 µM (active) | > 100 µM (inactive) | > 100 µM (inactive) | > 100 µM (inactive) | > 100 µM (inactive) | > 100 µM (inactive) | > 100 µM (inactive) | > 100 µM (inactive) | > 100 µM (inactive) | > 100 µM (inactive)
COc1ccc(C(=O)/C=C/c2ccc(OCC(=N)N)cc2)cc1 | 14.2 µM (inactive) | 12.9 µM (inactive) | 31.7 µM (inactive) | > 10 µM (inactive) | > 10 µM (inactive) | 14.7 µM (inactive) | 18.7 µM (inactive) | 17.9 µM (inactive) | 15.2 µM (inactive) | 4.06 µM (inactive) | 16.4 µM (inactive) | 17.9 µM (inactive) | 17.6 µM (inactive) | 28.2 µM (inactive) | 4.55 µM (inactive) | 18.2 µM (inactive) | 21.4 µM (inactive) | 14.3 µM (inactive) | 15.6 µM (inactive)
O=c1c2c3c(sc2nc2n1N=CN(c1ccc(F)cc1)C2)CCCC3 | > 100 µM (inactive) | > 100 µM (inactive) | > 100 µM (inactive) | > 100 µM (inactive) | > 100 µM (inactive) | > 100 µM (inactive) | > 100 µM (inactive) | > 100 µM (inactive) | > 100 µM (inactive) | > 100 µM (inactive) | > 100 µM (inactive) | > 100 µM (inactive) | > 100 µM (inactive) | > 100 µM (inactive) | > 100 µM (inactive) | > 100 µM (inactive) | > 100 µM (inactive) | > 100 µM (inactive) | > 100 µM (inactive)
O=c1c2cc([N+](=O)[O-])ccc2n(Cc2ccccc2)n1Cc1ccccc1 | 18.8 µM (inactive) | > 10 µM (inactive) | > 31.6 µM (inactive) | 11.8 µM (inactive) | 22.2 µM (inactive) | 24.9 µM (inactive) | 13.1 µM (inactive) | > 17.8 µM (inactive) | 14.2 µM (inactive) | 14.7 µM (inactive) | 17.2 µM (inactive) | 15.3 µM (inactive) | 16.2 µM (inactive) | 11.2 µM (inactive) | 16.9 µM (inactive) | 20.8 µM (inactive) | 22.8 µM (inactive) | 11.9 µM (inactive) | 8.63 µM (inactive)
CC1(C)C2CC1C(/C=N\OCC(=O)O)=CC2=O (configuration not stated) | > 100 µM (inactive) | > 100 µM (inactive) | > 100 µM (inactive) | > 100 µM (inactive) | > 100 µM (inactive) | > 100 µM (inactive) | > 100 µM (inactive) | > 100 µM (inactive) | > 100 µM (inactive) | > 100 µM (inactive) | > 100 µM (inactive) | > 100 µM (inactive) | > 100 µM (inactive) | > 100 µM (inactive) | > 100 µM (inactive) | > 100 µM (inactive) | > 100 µM (inactive) | > 100 µM (inactive) | > 100 µM (inactive)
CCn1c2ccc(O)c(C(=O)OC)c2c2cc3ccccc3c(O)c21 | 15.3 µM (inactive) | 10.5 µM (inactive) | 32.3 µM (inactive) | 14.2 µM (inactive) | 13.4 µM (inactive) | 31.2 µM (inactive) | 16.9 µM (inactive) | 2.72 µM (inactive) | 1.95 µM (inactive) | 19 µM (inactive) | 35 µM (inactive) | 15.2 µM (inactive) | 12.6 µM (inactive) | 19.8 µM (inactive) | 12.6 µM (inactive) | 8 µM (inactive) | 15.9 µM (inactive) | 17.4 µM (inactive) | 23.2 µM (inactive)
CCOC(=O)CC[C@H](N)C(=O)N[C@@H](Cc1ccc(N(CCCl)CCCl)cc1)C(=O)OCC | 0.938 µM (active) | 1.48 µM (inactive) | 2.39 µM (inactive) | 0.0364 µM (active) | 0.358 µM (active) | 0.658 µM (active) | 0.278 µM (active) | 0.291 µM (active) | 0.475 µM (active) | < 0.0308 µM (active) | 2.3 µM (inactive) | 7.83 µM (inactive) | < 0.0348 µM (active) | 1.52 µM (inactive) | 0.851 µM (active) | 1.56 µM (inactive) | 1.47 µM (inactive) | 0.891 µM (active) | 0.256 µM (active)
CC(C)=C[C@H]1C[C@H](C)[C@H]2CC[C@H](C)c3c2c1c(C)c1ncoc31 | 16.7 µM (inactive) | – | 16 µM (inactive) | 18.4 µM (inactive) | 18.7 µM (inactive) | 11.9 µM (inactive) | – | 13.5 µM (inactive) | 16.6 µM (inactive) | 17.7 µM (inactive) | 15.9 µM (inactive) | 21.1 µM (inactive) | 18.1 µM (inactive) | 17 µM (inactive) | 18.6 µM (inactive) | 13.9 µM (inactive) | 17.4 µM (inactive) | 19.2 µM (inactive) | 18.3 µM (inactive)
C=C(C)[C@H]1C2=CC(C(=O)OC)=C(C[C@H](C(=C)C)[C@@H](O)[C@@H](O)C3=C[C@H]1OC3=O)O2 | > 100 µM (inactive) | > 100 µM (inactive) | > 100 µM (inactive) | – | > 100 µM (inactive) | > 100 µM (inactive) | > 100 µM (inactive) | > 100 µM (inactive) | 65.5 µM (inactive) | 87.9 µM (inactive) | > 100 µM (inactive) | > 100 µM (inactive) | > 100 µM (inactive) | > 100 µM (inactive) | > 100 µM (inactive) | 80.2 µM (inactive) | > 100 µM (inactive) | > 100 µM (inactive) | > 100 µM (inactive)
COC(=O)C(=O)C(C(=O)OC)C(=O)C(=O)Nc1ccccc1C(N)=O (configuration not stated) | – | > 100 µM (inactive) | > 100 µM (inactive) | > 10 µM (inactive) | > 100 µM (inactive) | > 100 µM (inactive) | > 100 µM (inactive) | > 100 µM (inactive) | > 100 µM (inactive) | > 100 µM (inactive) | > 100 µM (inactive) | > 100 µM (inactive) | > 100 µM (inactive) | > 100 µM (inactive) | > 100 µM (inactive) | > 100 µM (inactive) | > 100 µM (inactive) | > 100 µM (inactive) | > 100 µM (inactive)
COC(=O)C1(NC(=O)C(CC(=O)OCc2ccccc2)NC(=O)OCc2ccccc2)CCCCCC1 (configuration not stated) | 21.1 µM (inactive) | 35.4 µM (inactive) | 39.2 µM (inactive) | 34.8 µM (inactive) | 20.8 µM (inactive) | 55 µM (inactive) | 41.8 µM (inactive) | 24.1 µM (inactive) | 36.6 µM (inactive) | – | 47.6 µM (inactive) | 17.4 µM (inactive) | 34 µM (inactive) | 21 µM (inactive) | 31 µM (inactive) | 37.6 µM (inactive) | 67.8 µM (inactive) | 27.2 µM (inactive) | 16.4 µM (inactive)
CC(=O)c1c2n(n(-c3ccccc3)c1=O)C(=O)c1nccnc1-2 | > 100 µM (inactive) | > 100 µM (inactive) | > 100 µM (inactive) | > 100 µM (inactive) | > 100 µM (inactive) | > 100 µM (inactive) | > 100 µM (inactive) | > 100 µM (inactive) | > 100 µM (inactive) | – | > 100 µM (inactive) | > 100 µM (inactive) | > 100 µM (inactive) | > 100 µM (inactive) | > 100 µM (inactive) | > 100 µM (inactive) | – | > 100 µM (inactive) | > 100 µM (inactive)
